The values below come from patent US9050341B2, “Methods of treating drug resistant and other tumors by administering 6,7-dialkoxy quinazoline derivatives” (NATCO PHARMA LIMITED, priority 2009, dated 2015).

Common to all, as to experiment: KinomeScan kinase profiling
What all share (assay type): binding

One assay deals with T1, CAMK2B (Homo sapiens, UniProt Q13554).
T1 construct: purchased Ambit Biosciences Corp (KinomeScan); host or cells: E. coli host derived from the BL21 strain, T7 phage

The target of the next assay is T2, LTK (Homo sapiens, UniProt P29376).
T2 construct: host or cells: E. coli derived from BL21, infected with T7 phage
In a few lines:
(§1)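 Kinases were expressed as T7 phage fusions in a BL21-derived E. coli host and the cleared lysates were used. Ligand beads were blocked with biotin and buffer (1% BSA, 0.05% Tween 20, 1 mM DTT). Compounds came from 40× DMSO stocks, and phage in the eluates was titred by qPCR.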

The next assay concerns the target T3, ZAP70 (Homo sapiens, UniProt P43403).
T3 construct: host or cells: E. coli host derived from the BL21 strain, infected with T7 phage
Summed up: as §1

A further assay concerns the target T4, ROCK2 (Homo sapiens, UniProt O75116).
T4 construct: host or cells: E. coli host derived from BL21, T7 phage lysate
In a few lines:
as §1

Another assay addresses T5, ABL2 (Homo sapiens, UniProt P42684).
T5 construct: host or cells: E. coli host derived from BL21 (T7 phage lysate)
Summed up: as §1

For another assay, the target named is T6, RET (V804M) (Homo sapiens, UniProt P07949, V804M).
T6 construct: host or cells: E. coli host derived from BL21, T7 phage lysate
In a few lines: as §1

Another assay has as its target T7, MINK (Homo sapiens, UniProt Q8N4C8).
T7 construct: host or cells: E. coli derived from BL21, infected with T7 phage
Summed up:
as §1

A further assay deals with T8, CLK3 (Homo sapiens, UniProt P49761).
T8 construct: host or cells: T7 phage in E. coli (BL21-derived)
Summed up:
as §1

For another assay, the target named is T9, MLK2 (Homo sapiens, UniProt Q02779).
T9 construct: host or cells: T7 phage in E. coli host derived from BL21
Summed up: as §1

For the next assay, the target named is T10, CSNK1G3 (Homo sapiens, UniProt Q9Y6M4).
T10 construct: purchased Ambit Biosciences Corp (KinomeScan); host or cells: T7 phage in E. coli host derived from BL21

Assay [1] deals with T11, RPS6KA1 (Kin.Dom.-2-C-terminal) (Homo sapiens, UniProt Q15418).
T11 construct: RPS6KA1 (Kin.Dom.-2-C-terminal); host or cells: E. coli host derived from BL21, T7 phage lysate
T11 sequence (Q15418 418-675 limits assumed): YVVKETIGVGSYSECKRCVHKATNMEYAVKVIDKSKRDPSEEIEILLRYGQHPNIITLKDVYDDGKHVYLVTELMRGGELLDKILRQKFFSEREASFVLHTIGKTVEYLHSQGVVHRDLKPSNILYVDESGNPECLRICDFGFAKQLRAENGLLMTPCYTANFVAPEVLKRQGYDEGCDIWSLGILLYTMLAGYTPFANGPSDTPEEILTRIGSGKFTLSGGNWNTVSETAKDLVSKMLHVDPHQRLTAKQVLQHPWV

The next assay concerns the target T12, PKN1 (Homo sapiens, UniProt Q16512).
T12 construct: purchased Ambit Biosciences Corp (KinomeScan); host or cells: E. coli host derived from BL21, infected with T7 phage

A further assay addresses T13, ERK2 (Homo sapiens, UniProt P28482).
T13 construct: host or cells: E. coli host derived from BL21, T7 phage lysate

Another assay addresses T14, ACVR1B (Homo sapiens, UniProt P36896).
T14 construct: host or cells: E. coli host derived from BL21 (T7 phage lysate)

Another assay concerns the target T15, YES (Homo sapiens, UniProt P07947).
T15 construct: purchased Ambit Biosciences Corp (KinomeScan); host or cells: E. coli host derived from the BL21 strain (T7 phage lysate)

The target in the next assay is T16, PKAC-beta (Homo sapiens, UniProt P22694).
T16 construct: purchased Ambit Biosciences Corp (KinomeScan); host or cells: E. coli host derived from BL21, infected with T7 phage

T4 sequence (O75116 whole entry): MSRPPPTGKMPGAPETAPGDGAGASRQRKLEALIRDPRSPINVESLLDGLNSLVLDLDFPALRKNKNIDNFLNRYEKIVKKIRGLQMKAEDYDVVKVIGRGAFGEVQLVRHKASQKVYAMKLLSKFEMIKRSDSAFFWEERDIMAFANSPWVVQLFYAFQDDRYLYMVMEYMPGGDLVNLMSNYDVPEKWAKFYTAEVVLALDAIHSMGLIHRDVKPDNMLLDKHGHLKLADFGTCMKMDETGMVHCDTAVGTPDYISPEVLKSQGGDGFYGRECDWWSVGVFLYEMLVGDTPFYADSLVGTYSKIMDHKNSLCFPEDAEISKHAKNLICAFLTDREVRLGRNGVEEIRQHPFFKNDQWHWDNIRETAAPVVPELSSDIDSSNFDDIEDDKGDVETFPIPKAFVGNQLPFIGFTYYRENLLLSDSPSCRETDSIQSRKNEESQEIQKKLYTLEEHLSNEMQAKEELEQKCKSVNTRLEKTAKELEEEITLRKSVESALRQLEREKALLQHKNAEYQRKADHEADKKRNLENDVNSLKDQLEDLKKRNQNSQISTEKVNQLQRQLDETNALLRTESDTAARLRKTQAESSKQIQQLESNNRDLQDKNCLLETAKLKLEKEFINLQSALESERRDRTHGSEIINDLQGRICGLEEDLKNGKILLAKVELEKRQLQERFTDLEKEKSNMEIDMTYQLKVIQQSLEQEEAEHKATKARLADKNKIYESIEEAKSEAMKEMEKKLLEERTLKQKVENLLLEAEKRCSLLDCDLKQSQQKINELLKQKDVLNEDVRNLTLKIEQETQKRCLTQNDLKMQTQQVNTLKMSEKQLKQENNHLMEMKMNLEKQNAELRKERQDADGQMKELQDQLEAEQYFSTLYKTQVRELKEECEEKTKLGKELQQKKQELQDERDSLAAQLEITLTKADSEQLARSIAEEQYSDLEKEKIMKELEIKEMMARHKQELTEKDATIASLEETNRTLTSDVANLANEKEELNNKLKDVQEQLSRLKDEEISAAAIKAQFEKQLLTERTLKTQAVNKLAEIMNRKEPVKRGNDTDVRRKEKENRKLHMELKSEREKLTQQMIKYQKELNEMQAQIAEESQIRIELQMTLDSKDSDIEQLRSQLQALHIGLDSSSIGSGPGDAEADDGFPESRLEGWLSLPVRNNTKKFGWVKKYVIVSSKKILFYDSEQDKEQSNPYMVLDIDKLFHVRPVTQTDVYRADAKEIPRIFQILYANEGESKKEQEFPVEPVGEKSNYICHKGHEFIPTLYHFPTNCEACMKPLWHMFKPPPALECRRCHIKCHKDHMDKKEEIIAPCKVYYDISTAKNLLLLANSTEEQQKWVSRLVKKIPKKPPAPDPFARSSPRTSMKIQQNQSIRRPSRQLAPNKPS
T13 sequence (P28482 whole entry): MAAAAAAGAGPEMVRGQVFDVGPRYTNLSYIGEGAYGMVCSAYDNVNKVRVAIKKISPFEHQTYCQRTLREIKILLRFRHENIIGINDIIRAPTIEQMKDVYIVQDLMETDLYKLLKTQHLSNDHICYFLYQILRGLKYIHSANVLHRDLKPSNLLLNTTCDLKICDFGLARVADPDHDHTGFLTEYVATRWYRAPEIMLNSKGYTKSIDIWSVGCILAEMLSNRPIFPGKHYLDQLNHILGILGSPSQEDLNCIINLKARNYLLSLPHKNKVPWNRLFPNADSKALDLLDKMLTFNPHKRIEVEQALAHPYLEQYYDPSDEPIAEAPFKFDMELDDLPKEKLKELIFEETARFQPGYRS
T7 sequence (Q8N4C8 whole entry): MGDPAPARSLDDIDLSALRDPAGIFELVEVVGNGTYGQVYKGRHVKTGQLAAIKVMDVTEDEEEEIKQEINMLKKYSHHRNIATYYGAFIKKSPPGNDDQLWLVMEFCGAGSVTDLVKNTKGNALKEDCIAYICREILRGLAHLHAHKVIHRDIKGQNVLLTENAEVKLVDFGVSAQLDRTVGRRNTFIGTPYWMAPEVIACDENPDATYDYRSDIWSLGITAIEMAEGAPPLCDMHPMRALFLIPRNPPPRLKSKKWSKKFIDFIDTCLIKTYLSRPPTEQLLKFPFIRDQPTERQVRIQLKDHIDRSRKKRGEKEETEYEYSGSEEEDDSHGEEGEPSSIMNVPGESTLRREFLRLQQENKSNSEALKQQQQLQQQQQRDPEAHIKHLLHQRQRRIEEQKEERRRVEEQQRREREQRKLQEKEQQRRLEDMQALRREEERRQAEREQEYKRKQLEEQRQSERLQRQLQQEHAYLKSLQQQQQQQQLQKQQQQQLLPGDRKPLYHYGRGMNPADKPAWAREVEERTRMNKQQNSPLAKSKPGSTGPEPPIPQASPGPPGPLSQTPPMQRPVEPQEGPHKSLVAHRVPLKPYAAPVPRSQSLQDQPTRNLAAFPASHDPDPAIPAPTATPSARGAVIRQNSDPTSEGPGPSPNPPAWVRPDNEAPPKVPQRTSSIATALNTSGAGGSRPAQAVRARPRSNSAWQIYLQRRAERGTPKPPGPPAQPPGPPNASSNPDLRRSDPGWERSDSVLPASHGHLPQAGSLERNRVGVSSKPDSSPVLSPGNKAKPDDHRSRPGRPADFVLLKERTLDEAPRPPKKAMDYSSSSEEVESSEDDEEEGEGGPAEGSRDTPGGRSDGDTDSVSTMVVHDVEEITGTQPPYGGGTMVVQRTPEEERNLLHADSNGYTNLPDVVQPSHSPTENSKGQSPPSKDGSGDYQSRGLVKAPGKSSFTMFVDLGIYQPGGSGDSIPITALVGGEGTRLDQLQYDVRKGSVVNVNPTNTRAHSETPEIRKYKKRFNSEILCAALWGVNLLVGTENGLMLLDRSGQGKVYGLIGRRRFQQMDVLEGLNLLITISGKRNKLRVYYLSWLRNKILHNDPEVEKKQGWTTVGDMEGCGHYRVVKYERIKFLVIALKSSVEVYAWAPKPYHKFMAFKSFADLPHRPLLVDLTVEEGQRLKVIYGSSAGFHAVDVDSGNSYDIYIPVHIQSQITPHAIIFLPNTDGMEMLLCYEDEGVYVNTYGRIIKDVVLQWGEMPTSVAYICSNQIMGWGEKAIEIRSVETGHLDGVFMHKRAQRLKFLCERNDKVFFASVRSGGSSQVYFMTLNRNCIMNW
T1 sequence (Q13554 whole entry): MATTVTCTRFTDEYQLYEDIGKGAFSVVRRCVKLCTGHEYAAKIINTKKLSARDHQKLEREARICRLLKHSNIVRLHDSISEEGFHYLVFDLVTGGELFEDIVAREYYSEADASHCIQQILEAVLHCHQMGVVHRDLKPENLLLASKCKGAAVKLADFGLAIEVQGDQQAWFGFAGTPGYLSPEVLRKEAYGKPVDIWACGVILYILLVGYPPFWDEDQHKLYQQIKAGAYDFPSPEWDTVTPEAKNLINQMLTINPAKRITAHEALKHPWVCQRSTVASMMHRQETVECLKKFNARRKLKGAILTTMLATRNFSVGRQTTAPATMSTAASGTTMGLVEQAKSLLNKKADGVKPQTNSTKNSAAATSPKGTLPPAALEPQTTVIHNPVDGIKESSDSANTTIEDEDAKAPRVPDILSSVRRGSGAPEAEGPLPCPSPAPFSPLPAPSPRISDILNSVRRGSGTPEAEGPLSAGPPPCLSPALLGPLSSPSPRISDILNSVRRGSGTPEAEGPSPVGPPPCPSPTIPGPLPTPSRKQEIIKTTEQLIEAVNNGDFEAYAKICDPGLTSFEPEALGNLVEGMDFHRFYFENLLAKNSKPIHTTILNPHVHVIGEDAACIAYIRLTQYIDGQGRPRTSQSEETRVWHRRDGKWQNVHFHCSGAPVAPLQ
T12 sequence (Q16512 whole entry): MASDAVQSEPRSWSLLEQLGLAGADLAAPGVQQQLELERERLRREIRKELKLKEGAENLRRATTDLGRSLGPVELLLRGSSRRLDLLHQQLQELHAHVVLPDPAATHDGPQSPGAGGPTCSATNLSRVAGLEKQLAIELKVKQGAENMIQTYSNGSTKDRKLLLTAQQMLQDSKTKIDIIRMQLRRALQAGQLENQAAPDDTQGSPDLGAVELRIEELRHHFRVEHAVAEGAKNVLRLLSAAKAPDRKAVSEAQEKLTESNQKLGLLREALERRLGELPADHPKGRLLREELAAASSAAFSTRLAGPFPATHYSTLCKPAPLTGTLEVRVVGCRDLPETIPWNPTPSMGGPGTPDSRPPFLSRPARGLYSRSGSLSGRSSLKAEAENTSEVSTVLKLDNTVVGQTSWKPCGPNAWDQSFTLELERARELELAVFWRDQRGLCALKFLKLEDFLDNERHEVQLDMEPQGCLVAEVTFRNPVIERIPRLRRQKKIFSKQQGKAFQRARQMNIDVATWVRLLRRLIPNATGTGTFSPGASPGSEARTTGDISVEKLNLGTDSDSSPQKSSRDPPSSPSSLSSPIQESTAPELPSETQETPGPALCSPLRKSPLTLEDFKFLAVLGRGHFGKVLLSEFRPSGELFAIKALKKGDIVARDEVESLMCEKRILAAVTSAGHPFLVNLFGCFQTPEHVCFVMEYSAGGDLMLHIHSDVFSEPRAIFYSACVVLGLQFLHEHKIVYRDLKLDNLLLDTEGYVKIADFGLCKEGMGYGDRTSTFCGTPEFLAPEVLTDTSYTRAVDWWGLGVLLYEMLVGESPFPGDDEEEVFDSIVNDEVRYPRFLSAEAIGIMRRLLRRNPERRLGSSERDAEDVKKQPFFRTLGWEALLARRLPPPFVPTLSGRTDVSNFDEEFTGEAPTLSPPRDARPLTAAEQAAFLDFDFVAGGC

For `C#Cc1cccc(Nc2ncnc3cc(OC)c(OCCCN4CCOCC4)cc23)c1` [NRC-2694, N-(3-ethylnylphenyl)-7-methoxy-6-[3-(4-morpholinyl)propoxy]-4-quinazolinamine], the “% Ctrl @ 10000 nM” value at CAMK2B is 77 % Ctrl; at LTK, 3.8 % Ctrl; on ZAP70, 100 % Ctrl; on ROCK2, 38 % Ctrl; on ABL2, 43 % Ctrl; on RET (V804M), 100 % Ctrl. For the same compound, the “% Ctrl @ 10000 nM” value on MINK is 16 % Ctrl; on CLK3, 45 % Ctrl; at MLK2, 83 % Ctrl; on CSNK1G3, 61 % Ctrl; in assay [1] it was 49 % Ctrl; at PKN1, 50 % Ctrl. Further, the “% Ctrl @ 10000 nM” value stood at 100 % Ctrl on ERK2, 63 % Ctrl on ACVR1B, 41 % Ctrl at YES and 88 % Ctrl on PKAC-beta.
